Data published in the supplement of paper PMC10307832.

What was measured:
Assay in all cases: relative viability (nuclei count vs DMSO), 5 days (fraction); higher = more cells survive
[1] = compound: C=CCn1c(=O)c2cnc(Nc3ccc(N4CCN(C)CC4)cc3)nc2n1-c1cccc(C(C)(C)O)n1 [Adavosertib] + COc1cccc2cc(-c3nc([C@H]4CC[C@H](C(=O)O)CC4)n4ncnc(N)c34)[nH]c12 [OSI-027] (partner 0.5 µM)
In short: (§1)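 Nuclei were stained with Hoechst during a one-step fixation (final 0.05% Triton X-100, 1% formaldehyde, 1 ug/ml Hoechst) carried out 5 days after dosing, then counted on 4× images. The cells, lung cancer lines in 1536-well plates, had been dosed by pin tool the day after seeding with one drug alone or a fixed anchor-drug dose plus five library-drug doses (not always all listed) in √10 steps. Relative viability is the nuclei count in treated wells divided by that in vehicle wells, and each value is the median of duplicate plates.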

[2] = compound: C=CCn1c(=O)c2cnc(Nc3ccc(N4CCN(C)CC4)cc3)nc2n1-c1cccc(C(C)(C)O)n1 [Adavosertib] + CS(=O)(=O)N1CCN(Cc2cc3nc(-c4cccc5[nH]ncc45)nc(N4CCOCC4)c3s2)CC1 [Pictilisib] (partner 1 µM)
In short: as §1

[3] = compound: COc1nc(N)nc2c1ncn2[C@@H]1O[C@H](CO)[C@@H](O)[C@@H]1O [Nelarabine] + CS(=O)(=O)CCNCc1ccc(-c2ccc3ncnc(Nc4ccc(OCc5cccc(F)c5)c(Cl)c4)c3c2)o1 [Lapatinib] (partner 2 µM)
In short: as §1

[4] = compound: COc1nc(N)nc2c1ncn2[C@@H]1O[C@H](CO)[C@@H](O)[C@@H]1O [Nelarabine] + Cc1nc(Nc2ncc(C(=O)Nc3c(C)cccc3Cl)s2)cc(N2CCN(CCO)CC2)n1 [Dasatinib] (partner 0.075 µM)
In short: as §1

Row | Cell Line | relative viability ([1]; first compound 0.01 µM) | relative viability ([1]; first compound 0.03162 µM) | relative viability ([1]; first compound 0.1 µM) | relative viability ([1]; first compound 0.3162 µM) | relative viability ([2]; first compound 0.01 µM) | relative viability ([2]; first compound 0.03162 µM) | relative viability ([2]; first compound 0.1 µM) | relative viability ([2]; first compound 0.3162 µM) | relative viability ([3]; first compound 0.01 µM) | relative viability ([3]; first compound 0.03162 µM) | relative viability ([3]; first compound 0.1 µM) | relative viability ([3]; first compound 0.3162 µM) | relative viability ([3]; first compound 1 µM) | relative viability ([4]; first compound 0.01 µM) | relative viability ([4]; first compound 0.03162 µM) | relative viability ([4]; first compound 0.1 µM) | relative viability ([4]; first compound 0.3162 µM) | relative viability ([4]; first compound 1 µM)
1 | SK-LU-1 | 0.394 | 0.324 | 0.296 | 0.182 | 0.649 | 0.532 | 0.456 | 0.242 | 1.24 | 0.617 | 0.887 | 0.94 | 0.885 | 0.179 | 0.105 | 0.142 | 0.171 | 0.165
2 | NCI-H1915 | 0.677 | 0.606 | 0.69 | 0.586 | 0.97 | 1 | 1.05 | 0.985 | 1.19 | 0.867 | 1.01 | 1.09 | 0.997 | 0.337 | 0.36 | 0.281 | 0.296 | 0.364
3 | NCI-H1666 | 0.797 | 0.851 | 0.847 | 0.744 | 0.5 | 0.324 | 0.309 | 0.403 | 0.711 | 0.604 | 0.57 | 0.675 | 0.646 | 0.835 | 0.855 | 0.719 | 0.878 | 0.934
4 | NCI-H1650 | 0.447 | 0.775 | 0.563 | 0.384 | 0.652 | 0.579 | 0.506 | 0.3 | 0.882 | 0.834 | 0.783 | 0.831 | 0.826 | 0.265 | 0.329 | 0.27 | 0.305 | 0.329
5 | LC-2-ad | 0.834 | 0.94 | 0.892 | 0.694 | 0.455 | 0.587 | 0.424 | 0.37 | 1.28 | 1.03 | 0.991 | 1.06 | 1.08 | 0.556 | 0.647 | 0.463 | 0.529 | 0.611
6 | NCI-H727 | 0.599 | 0.546 | 0.523 | 0.575 | 0.525 | 0.341 | 0.359 | 0.366 | 0.909 | 0.896 | 0.922 | 0.74 | 0.829 | 0.318 | 0.418 | 0.295 | 0.249 | 0.44
7 | HCC-827 | 0.779 | 0.832 | 0.738 | 0.724 | 0.985 | 1.05 | 1.08 | 0.937 | 0.196 | 0.205 | 0.169 | 0.179 | 0.194 | 0.431 | 0.241 | 0.166 | 0.295 | 0.361
8 | NCI-H2023 | 0.465 | 0.35 | 0.304 | 0.203 | 0.251 | 0.21 | 0.197 | 0.143 | 1.48 | 1.15 | 0.642 | 0.812 | 0.948 | 0.825 | 0.59 | 0.382 | 0.62 | 0.66
